Data reported in ChEMBL document CHEMBL4052601, “Glycybridins A-K, Bioactive Phenolic Compounds from Glycyrrhiza glabra” (J Nat Prod, 2017).

Assays:
A549 [1] = assay: Antiproliferative activity against human A549 cells after 24 hrs by MTS assay; type: functional, cell-based
RAW264.7 = assay: Antiinflammatory activity against mouse RAW264.7 cells assessed as inhibition of LPS-induced nitric oxide production at 10 uM after 24 hrs by Griess assay relative to control; type: functional; settings: RAW264.7, 24 h
[2] = target: T1, Tyrosinase (Homo sapiens) (UniProt P14679); settings: at 10 µM;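 further: tyrosinase of unspecified origin acting on L-tyrosine, compound preincubated with enzyme for 15 min before adding substrate, inhibition expressed versus control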
T1 sequence (whole entry): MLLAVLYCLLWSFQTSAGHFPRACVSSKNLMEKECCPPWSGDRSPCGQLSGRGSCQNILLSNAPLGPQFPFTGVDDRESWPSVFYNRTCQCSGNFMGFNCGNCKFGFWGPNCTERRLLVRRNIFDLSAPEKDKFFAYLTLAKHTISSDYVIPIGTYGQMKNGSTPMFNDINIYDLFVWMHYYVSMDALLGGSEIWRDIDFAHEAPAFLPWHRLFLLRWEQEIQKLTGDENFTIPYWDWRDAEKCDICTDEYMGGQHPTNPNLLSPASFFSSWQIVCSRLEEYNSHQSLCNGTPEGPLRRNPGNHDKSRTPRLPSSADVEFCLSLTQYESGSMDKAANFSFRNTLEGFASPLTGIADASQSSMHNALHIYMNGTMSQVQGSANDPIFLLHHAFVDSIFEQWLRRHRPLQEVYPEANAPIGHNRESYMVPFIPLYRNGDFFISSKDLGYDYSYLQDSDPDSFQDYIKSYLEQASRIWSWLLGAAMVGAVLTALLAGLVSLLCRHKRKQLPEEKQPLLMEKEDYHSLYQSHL
Description: Inhibition of tyrosinase (unknown origin) using L-tyrosine as substrate at 10 uM preincubated for 15 mins followed by substrate addition relative to control

A549 [3] = assay: Induction of apoptosis in human A549 cells assessed as early apoptotic cells at 5 uM after 8 hrs by Annexin V-FITC/propidium iodide staining-based flow cytometric analysis (reference value: 1.64%); type: functional
SW480 [4] = assay: Antiproliferative activity against human SW480 cells at 10 uM after 24 hrs by MTS assay relative to control; type: functional; settings: SW480, 24 h
HepG2 [5] = assay: Antiproliferative activity against human HepG2 cells after 24 hrs by MTS assay; type: functional, cell-based; settings: HepG2, 24 h
SW480 [6] = assay: Antiproliferative activity against human SW480 cells after 24 hrs by MTS assay; type: functional, cell-based; settings: SW480, 24 h
A549 [7] = assay: Antitumor activity against human A549 cells xenografted in BALB/c nude mouse assessed as reduction in tumor volume at 10 mg/kg, ip administered as daily dose for 16 days relative to control; type: functional; settings: 384 h
Homo sapiens = assay: Inhibition of LPS-induced NF-kappaB (unknown origin) transactivation expressed in human SW480 cells at 10 uM administered 1 hr after LPS stimulation measured after 6 hrs by luciferase reporter gene assay relative to control; type: cell-based
A549 [8] = assay: Induction of apoptosis in human A549 cells after 8 hrs by Annexin V-FITC/propidium iodide staining-based flow cytometric analysis; type: functional, cell-based
A549 [9] = assay: Induction of apoptosis in human A549 cells assessed as late apoptotic cells at 10 uM after 8 hrs by Annexin V-FITC/propidium iodide staining-based flow cytometric analysis (reference value: 12.02%); type: functional
A549 [10] = assay: Antitumor activity against human A549 cells xenografted in BALB/c nude mouse assessed as reduction in tumor mass at 10 mg/kg, ip administered as daily dose for 16 days relative to control; type: functional; settings: 384 h
A549 [11] = assay: Induction of apoptosis in human A549 cells assessed as early apoptotic cells at 10 uM after 8 hrs by Annexin V-FITC/propidium iodide staining-based flow cytometric analysis (reference value: 1.64%); type: functional
MCF7 [12] = assay: Antiproliferative activity against human MCF7 cells after 24 hrs by MTS assay; type: functional, cell-based; settings: MCF7, 24 h
HepG2 [13] = assay: Antiproliferative activity against human HepG2 cells at 10 uM after 24 hrs by MTS assay relative to control; type: functional; settings: HepG2, 24 h
Mus musculus [14] = assay: Toxicity in BALB/c nude mouse xenografted with human A549 cells at 10 mg/kg, ip administered as daily dose for 16 days relative to control; type: organism-based; settings: in vivo, 384 h
MCF7 [15] = assay: Antiproliferative activity against human MCF7 cells at 10 uM after 24 hrs by MTS assay relative to control; type: functional; settings: MCF7, 24 h
[16] = target: T2, Tyrosine-protein phosphatase non-receptor type 1 (Homo sapiens) (UniProt P18031); settings: at 10 µM;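 further: recombinant enzyme assay with pNPP substrate, inhibition read after 30 min versus untreated control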
T2 sequence (whole entry): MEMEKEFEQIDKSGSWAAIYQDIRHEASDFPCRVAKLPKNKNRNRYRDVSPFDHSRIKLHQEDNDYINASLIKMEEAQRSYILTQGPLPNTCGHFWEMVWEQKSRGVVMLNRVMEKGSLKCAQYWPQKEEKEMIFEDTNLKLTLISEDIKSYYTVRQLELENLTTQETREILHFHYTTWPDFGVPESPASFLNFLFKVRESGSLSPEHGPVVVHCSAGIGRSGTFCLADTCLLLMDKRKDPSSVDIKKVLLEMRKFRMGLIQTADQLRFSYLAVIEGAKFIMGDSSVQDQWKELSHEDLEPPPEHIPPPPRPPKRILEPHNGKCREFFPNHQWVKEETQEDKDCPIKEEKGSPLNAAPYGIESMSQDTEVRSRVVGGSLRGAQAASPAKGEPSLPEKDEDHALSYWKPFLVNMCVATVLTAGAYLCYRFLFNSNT
Description: Inhibition of recombinant human PTP1B using pNPP as substrate at 10 uM after 30 mins relative to control

A549 [17] = assay: Induction of apoptosis in human A549 cells assessed as late apoptotic cells at 20 uM after 8 hrs by Annexin V-FITC/propidium iodide staining-based flow cytometric analysis (reference value: 12.02%); type: functional
A549 [18] = assay: Induction of apoptosis in human A549 cells assessed as early apoptotic cells at 20 uM after 8 hrs by Annexin V-FITC/propidium iodide staining-based flow cytometric analysis (reference value: 1.64%); type: functional
A549 [19] = assay: Induction of apoptosis in human A549 cells assessed as early apoptotic cells at 2.5 uM after 8 hrs by Annexin V-FITC/propidium iodide staining-based flow cytometric analysis (reference value: 1.64%); type: functional
A549 [20] = assay: Induction of apoptosis in human A549 cells assessed as late apoptotic cells at 5 uM after 8 hrs by Annexin V-FITC/propidium iodide staining-based flow cytometric analysis (reference value: 12.02%); type: functional
Mus musculus [21] = assay: Toxicity in BALB/c nude mouse xenografted with human A549 cells assessed as change in body weight at 10 mg/kg, ip administered as daily dose for 16 days relative to control; type: organism-based; settings: in vivo, 384 h
A549 [22] = assay: Induction of apoptosis in human A549 cells assessed as late apoptotic cells at 2.5 uM after 8 hrs by Annexin V-FITC/propidium iodide staining-based flow cytometric analysis (reference value: 12.02%); type: functional
A549 [23] = assay: Antiproliferative activity against human A549 cells at 10 uM after 24 hrs by MTS assay relative to control; type: functional; settings: A549, 24 h

IC50 (A549 [1]; A549, 24 h): 4.6 µM | inhibition [2]: 3.8% | IC50 (HepG2 [5]): 4.6 to 6.6 µM | IC50 (SW480 [6]): 4.6 to 6.6 µM | IC50 (MCF7 [12]): 4.6 to 6.6 µM | inhibition [16]: 80.4%
Compound: CC(C)=CCc1cc2c(cc1O)OCC(c1ccc(O)c3c1OC(C)(C)C=C3)=C2
Activity (A549 [1]): Dose-dependent effect | inhibition at 10 µM (RAW264.7): 36% | Activity (A549 [3]): 2.42% | inhibition at 10 µM (SW480 [4]): 94.6% | inhibition in vivo at 10 mg/kg (A549 [7]): 38.9% | inhibition (Homo sapiens): 41.6% | Activity (A549 [8]): Dose-dependent effect | Activity (A549 [9]): 32.67% | inhibition in vivo at 10 mg/kg (A549 [10]): 39.7% | Activity (A549 [11]): 16.04% | inhibition at 10 µM (HepG2 [13]): 93.6% | Activity (Mus musculus [14]): Non-Toxic | inhibition at 10 µM (MCF7 [15]): 90.7% | Activity (A549 [17]): 72.21% | Activity (A549 [18]): 22.81% | Activity (A549 [19]): 3.03% | Activity (A549 [20]): 17.07% | Activity (Mus musculus [21]): Non-Toxic | Activity (A549 [22]): 14.08% | inhibition at 10 µM (A549 [23]): 87.7%
